Measured values taken from patent US20240327787A1, “CULTURE MEDIUM, COATING MATRIX AND METHOD FOR EXPANDING MIDBRAIN DOPAMINERGIC PROGENITOR CELLS” (NUWACELL BIOTECHNOLOGIES CO., LTD., priority 2022, published 2024).
Where a name gives a salt, the structure may show the parent alone.

Test system: imDAPs
Assay: imDAP maturation, cell morphology and adhesion (bright-field)
Assay type: cell-based, human
Conditions: 10 μM Y27632; coating 1 μg/cm^2 for each; day 7
Experimental: were produced according to the method described in CN201910169525.0, and expanded as described in Example 10. The expanded […] were seeded on VTN-coated (1 μg/cm^2) plates at a density of 5×10^5 cells/cm^2 (Day 0), and cultured in the maturation medium ([…]) supplemented with 1 μM IWR1. MM-P used in Example 11 contained the following components: NeurobasalTM medium, 1% (v/v) Glutamax, 0.5 mM Db-cAMP sodium salt, 200 μM ascorbic acid, 20 ng/ml BDNF, 20 ng/ml GDNF, 1 ng/ml TGF-β3, 10 μM DAPT, hPLT (0.5%, 1%, 2%). MM-H used in Example 11 contained the following components: NeurobasalTM medium, 1% (v/v) Glutamax, 0.5 mM Db-cAMP sodium salt, 200 μM ascorbic acid, 20 ng/ml BDNF, 20 ng/ml GDNF, 1 ng/ml TGF-β3, […], HhPLT (0.5%, 1%, 2%). MM-B used in Example 11 contained the following components: Neurobasal, 1% (v/v) Glutamax, 0.5 mM Db-cAMP sodium salt, 200 μM ascorbic acid, 20 ng/ml BDNF, 20 ng/ml GDNF, 1 ng/ml TGF-β 3, 10 μM DAPT, 2% (v/v) B27 (50×) (as control). The above HhPLT was produced from hPLT as follows. The hPLT was centrifuged at 3000 g for 30 min at 4° C. to obtain the supernatant, which was heated to 56° C. for 30 min. […] Cells were collected and counted by Vi-cell cytometer. The cells were analyzed by RT-qPCR for EN1, LMX1A, FOXA2, NURR1, SOX6 and TH gene expression. […]

C[C@@H](N)[C@H]1CC[C@H](C(=O)Nc2ccncc2)CC1 [Y27632, (R)-(+)-trans-4-(1-aminoethyl)-N-(4-pyridyl) cyclohexanecarboxamide dihydrochloride]
cell adhesion and growth in maturation media supplemented with Y27632 (FIG. 8A): could promote cell adhesion at a certain degree
